Source: patent publication US6333338A, “Bispiperidines as antithrombotic agents” (Laboratoire L. Lafon, priority 1998, dated 2001)
Structures can show the parent of a compound that is named as a salt. Where two headings read alike, the source gives them in different places.

Experiments:
[1] = test system: human platelets; experiment: In vitro inhibition of collagen-induced platelet aggregation, human platelets (PRP); type: cell-based; settings: 0.05 h, collagen 5 μg/ml, 3 minutes of contact at 37° C., read-out: IC50 (M) in vitro, Man
Protocol: (§1) A study of the inhibitory activity of the compounds of formula I on platelet aggregation was carried out in vitro, i.e. by direct contact of solutions of variable concentrations of the compounds with platelets freshly separated from a sample of total blood, taken under standardized conditions, from laboratory animals (guinea pigs) and from healthy human subjects who have not received any substances or drugs that might interfere with blood clotting. The anti-platelet-aggregating activity was also studied ex vivo/vitro, i.e. after administration of the substances claimed to guinea pigs to measure the intensity and duration of the anti-aggregating action induced by the fraction of the test product absorbed and circulating in the blood.
Venous blood is taken from a group of ten healthy human subjects of the same age, by puncture into a vein of the fold of the elbow and is collected in a glass tube containing aqueous 0.129 M sodium citrate solution (1 volume of citrate solution per 9 volumes of blood). Each tube is then centrifuged a first time at 20° C. and 100 g for 15 minutes in order to obtain the platelet-rich plasma (PRP); after removing this PRP, the tube is again centrifuged at 2000 g for 15 minutes in order this time to remove the platelet-poor plasma (PPP).
For each identified sample of PRP, the platelets are counted using a Coulter ZM counter. Each sample is then used to study the variation in inhibition of the platelet aggregation triggered by the addition of a Chromo-par Reagent collagen glucose solution from Coultronics (used at a concentration of 5 μg/ml) as a function of the addition of increasing concentrations of each compound in a range covering the interval 10^-8 M→10^-5 M, (example of concentrations: 10^-8 M, […], 6×10^-6 M, 4×10^-6 M, 2×10^-6 M, 10^-6 M, […], 10^-5 M). Beforehand, for each compound, an aqueous 10^-3 M solution is prepared. A control test intended to check the possible effect of the solvents (reference value) on the platelet aggregation is introduced into each measurement series, and is measured after 3 minutes of contact at 37° C. with agitation.
From the percentages of inhibition of the platelet aggregation measured for each concentration of each compound, the 50% inhibitory concentration (IC50) is calculated.

[2] = test system: guinea pig platelets; experiment: In vitro inhibition of collagen-induced platelet aggregation, guinea pig platelets (PRP); type: cell-based, guinea pig (male Dunkin-Hartley); settings: Cavia porcellus, Platelet, 0.05 h, collagen 1 μg/ml, 3 minutes of contact at 37° C.
Protocol: as §1
Blood is taken by intracardiac puncture from male Dunkin-Hartley guinea pigs (weighing about 330 g), at a rate of 4.5 ml per 0.5 ml of trisodium citrate (concentration of the aqueous solution: 1.55%) in order to prevent all trace of clotting. The platelet-rich plasma (PRP) is obtained by centrifuging the tubes of total blood for 15 minutes at 150 g.
The PRPs are collected as "pools". The platelets contained in these pools are counted using a Coulter ZM haematology automatic device: if necessary, a dilution is carried out in order for the platelet concentration in the plasma to be between 200,000 and 400,000 platelets/mm^3. Simultaneously, other samples of these pools serve to prepare the platelet-poor plasma (PPP) by centrifugation at 1500 g for 15 minutes.
The kinetic study of the platelet aggregation is carried out by adding a collagen solution (1 μg/ml) to a volume of PRP, using a Chrono-log Corporation aggregometer (490-D1 or 560 VS) which uses an optical detection of the appearance of the thrombus.
The measurements of the aggregation inhibition are carried out after 3 minutes of contact at 37° C. with agitation.

[3] = test system: guinea pig platelets; experiment: Ex vivo/vitro inhibition of platelet aggregation after administration via the gastric route in guinea pigs; set-up: species or system guinea pig (Dunkin-Hartley); settings: Cavia porcellus, Platelet, fasted guinea pigs
Protocol: as §1, with “blood. Evaluation of the anti-platelet-aggregating activity of the compounds is carried out in the same guinea pigs as those mentioned above (Dunkin-Hartley strain). […] The allocation of the treatments to the animals is random. The blood is taken and then treated under the same conditions as those described above for the in vitro studies. The results of the inhibition of the platelet aggregation obtained for each test concentration make it possible to calculate the IC50 concentration of each test product and the kinetics of the inhibitory effect and its duration of action.” for “blood.”

[4] = 1 h before blood sampling, read-out: % of g.r. inhibition guinea pig ex vivo, d = 10 mg/kg, 1 h
[5] = 1 h before blood sampling, read-out: % of g.r. inhibition guinea pig ex vivo, d = 150 mg/kg, 1 h
[6] = 2 h before blood sampling, read-out: % of g.r. inhibition guinea pig ex vivo, d = 150 mg/kg, 2 h
[7] = 2 h before blood sampling, read-out: % of g.r. inhibition guinea pig ex vivo, d = 10 mg/kg, 2 h

| Structure (SMILES) | IC50 [1] [M] | IC50 [2] [nM] | inhibition at 10 mg/kg [3, 4] [%] | inhibition at 150 mg/kg [3, 5] [%] | inhibition at 150 mg/kg [3, 6] [%] | inhibition at 10 mg/kg [3, 7] [%] |
| --- | --- | --- | --- | --- | --- | --- |
| O=C(O)CC(NC(=O)CNC(=O)C(CCC1CCNCC1)CCC1CCNCC1)c1ccc2c(c1)OCO2 (stereo not drawn) [Example 5, 3-(1,3-Benzodioxol-5-yl)-3-{[2-({4-(4-piperidyl)-2-[2-(4-piperidyl)ethyl]butanoyl}amino)acetyl]amino}-propanoic Acid Dihydrochloride] | 2.8e-07 | 2000 | -15 | -63 | -66 | – |
| CC(C)c1ccc(C(CC(=O)O)NC(=O)CNC(=O)C(CCC2CCNCC2)CCC2CCNCC2)cc1 (stereo not drawn) [Example 6, 3-(4-Isopropylphenyl)-3-{[2-({4-(4-piperidyl)-2-[2-(4-piperidyl)ethyl]butanoyl}amino)acetyl]amino}propanoic Acid Dihydrochloride] | 2.7e-06 | 14000 | – | -9 | -4 | – |
| COc1ccc(C(CC(=O)O)NC(=O)CNC(=O)C(CCC2CCNCC2)CCC2CCNCC2)cc1OC (stereo not drawn) [Example 8, 3-(3,4-Dimethoxyphenyl)-3-{[2-({4-(4-piperidyl)-2-[2-(4-piperidyl)ethyl]butanoyl}amino)acetyl]amino}propanoic Acid Dihydrochloride] | 1.6e-06 | 35000 | – | -10 | -31 | – |
| COc1cccc(C(CC(=O)O)NC(=O)CNC(=O)C(CCC2CCNCC2)CCC2CCNCC2)c1 (stereo not drawn) [Example 10, 3-(3-Methoxyphenyl)-3-{[2-({4-(4-piperidyl)-2-[2-(4-piperidyl)ethyl]butanoyl}amino)acetyl]amino}propanoic Acid Dihydrochloride] | 9.2e-07 | 13000 | – | -14 | -18 | – |
| O=C(O)CC(NC(=O)CNC(=O)C(CCC1CCNCC1)CCC1CCNCC1)c1cccnc1 (stereo not drawn) [Example 12, 3-(3-Pyridyl)-3-{[2-({4-(4-piperidyl)-2-[2-(4-piperidyl)ethyl]butanoyl}amino)acetyl]amino}propanoic Acid Trihydrochloride] | 1.5e-06 | 980 | – | -74 | -68 | – |
| O=C(O)CC(CCc1ccccc1)NC(=O)CNC(=O)C(CCC1CCNCC1)CCC1CCNCC1 (stereo not drawn) [Example 15, 5-Phenyl-3-{[2-({4-(4-piperidyl)-2-[2-(4-piperidyl)ethyl]butanoyl}amino)acetyl]amino}pentanoic Acid Dihydrochloride] | 1.5e-07 | 4300 | – | -84 | -26 | – |
| O=C(O)C[C@H](NC(=O)CNC(=O)C(CCC1CCNCC1)CCC1CCNCC1)C(=O)NC12CC3CC(CC(C3)C1)C2 [Example 16, (3S)-4-(1-Adamantylamino)-4-oxo-3-{[2-({4-(4-piperidyl)-2-[2-(4-piperidyl)ethyl]butanoyl}amino)acetyl]amino}butanoic Acid Dihydrochloride] | 8.5e-07 | 3500 | -5 | -54 | -47 | – |
| O=C(O)C[C@H](NC(=O)CNC(=O)C(CCC1CCNCC1)CCC1CCNCC1)C(=O)NCCc1cccc2[nH]ccc12 [Example 17, (3S)-4-{[2-(1H-Indol-4-yl)ethyl]amino}-4-oxo-3-{[2-({4-(4-piperidyl)-2-[2-(4-piperidyl)ethyl]butanoyl}amino)acetyl]amino}butanoic Acid Dihydrochloride] | 6e-06 | 7400 | – | -19 | – | – |
| O=C(CNC(=O)C(CCC1CCNCC1)CCC1CCNCC1)NCC(NS(=O)(=O)c1ccccc1)C(=O)O (stereo not drawn) [Example 26, 2-[(Phenylsulphonyl)amino]-3-{[2-({4-(4-piperidyl)-2-[2-(4-piperidyl)ethyl]butanoyl}amino)acetyl]amino}propanoic Acid Dihydrochloride] | 5.3e-07 | 440 | -41 | -77 | -68 | -20 |
| CCCc1ccc(S(=O)(=O)NC(CNC(=O)CNC(=O)C(CCC2CCNCC2)CCC2CCNCC2)C(=O)O)cc1 (stereo not drawn) [Example 28, 2-{[(4-Propylphenyl)sulphonyl]amino}-3-{[2-({4-(4-piperidyl)-2-[2-(4-piperidyl)ethyl]butanoyl}amino)acetyl]amino}propanoic Acid Dihydrochloride] | 1.1e-06 | 1500 | -18 | -73 | -75 | – |
| O=C(O)C[C@H](NC(=O)CNC(=O)C(CCC1CCNCC1)CCC1CCNCC1)C(=O)N1CCC(Cc2ccccc2)CC1 [Example 29, (3S)-4-oxo-4-(4-Benzylpiperidino)-3-{[2-({4-(4-piperidyl)-2-[2-(4-piperidyl)ethyl]butanoyl}amino)acetyl]amino}-butanoic Acid Dihydrochloride] | 1e-05 | 13000 | – | -35 | -23 | – |
| O=C(CNC(=O)C(CCC1CCNCC1)CCC1CCNCC1)NCC(NS(=O)(=O)c1ccc(-c2ccccc2)cc1)C(=O)O (stereo not drawn) [Example 30, 2-[([1,1-Biphenyl]-4-ylsulphonyl)amino]-3-{[2-({4-(4-piperidyl)-2-[2-(4-piperidyl)ethyl]butanoyl}amino)acetyl]amino}propanoic Acid Dihydrochloride] | 1.4e-07 | 120 | -67 | – | -72 | – |
| O=C(CNC(=O)C(CCC1CCNCC1)CCC1CCNCC1)NCC(NS(=O)(=O)c1cccc2ccccc12)C(=O)O (stereo not drawn) [Example 31, 2-[(1-Naphthylsulphonyl)amino]-3-{[2-({4-(4-piperidyl)-2-[2-(4-piperidyl)ethyl]butanoyl}amino)acetyl]amino}propanoic Acid Dihydrochloride] | 5.8e-07 | 44 | -81 | – | – | -81 |
| O=C(CNC(=O)C(CCC1CCNCC1)CCC1CCNCC1)NCC(NS(=O)(=O)c1cccs1)C(=O)O (stereo not drawn) [Example 33, 2-[(2-Thienylsulphonyl)amino]-3-{[2-({4-(4-piperidyl)-2-[2-(4-piperidyl)ethyl]butanoyl}amino)acetyl]amino}propanoic Acid Dihydrochloride] | 4.9e-07 | 710 | -14 | – | – | -5 |
